Laboratory results published in patent US20250368633A1, “AZEPINE FUSED RING COMPOUND AS RIPK1 INHIBITOR AND USE THEREOF” (ARTIVILA BIOPHARMA, priority 2022, published 2025).

What was measured:
[1] = tested on: U937 cells; assay: Inhibition rate of compound (1 μM) on necroptosis of U937 cells (TSZ-induced, CellTiter-Glo); assay type: cell-based; conditions: TSZ (hTNF-α, SM-164, Z-VAD-FMK) 20 hours
Procedure, shortened: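 Percent inhibition comes from ATP luminescence (CellTiter-Glo), referenced to wells without TSZ and wells with TSZ alone. The compound was added to U937 cells 15 min ahead of a TNF-α/SM-164/Z-VAD-FMK mix, followed by 20 h culture at 37° C, 5% CO2.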

[2] = target: T1, RIPK1 kinase (Homo sapiens, UniProt Q13546); assay: In vitro RIPK1 kinase activity IC50 assay (ADP-Glo); assay type: biochemical; conditions: ATP 10 μM; MBP substrate 100 μg/mL; 8 concentration points; read-out: IC50 range of compounds for RIPK1 kinase activity
T1 construct: purchased Promega VA7593
T1 sequence (Q13546 1-671): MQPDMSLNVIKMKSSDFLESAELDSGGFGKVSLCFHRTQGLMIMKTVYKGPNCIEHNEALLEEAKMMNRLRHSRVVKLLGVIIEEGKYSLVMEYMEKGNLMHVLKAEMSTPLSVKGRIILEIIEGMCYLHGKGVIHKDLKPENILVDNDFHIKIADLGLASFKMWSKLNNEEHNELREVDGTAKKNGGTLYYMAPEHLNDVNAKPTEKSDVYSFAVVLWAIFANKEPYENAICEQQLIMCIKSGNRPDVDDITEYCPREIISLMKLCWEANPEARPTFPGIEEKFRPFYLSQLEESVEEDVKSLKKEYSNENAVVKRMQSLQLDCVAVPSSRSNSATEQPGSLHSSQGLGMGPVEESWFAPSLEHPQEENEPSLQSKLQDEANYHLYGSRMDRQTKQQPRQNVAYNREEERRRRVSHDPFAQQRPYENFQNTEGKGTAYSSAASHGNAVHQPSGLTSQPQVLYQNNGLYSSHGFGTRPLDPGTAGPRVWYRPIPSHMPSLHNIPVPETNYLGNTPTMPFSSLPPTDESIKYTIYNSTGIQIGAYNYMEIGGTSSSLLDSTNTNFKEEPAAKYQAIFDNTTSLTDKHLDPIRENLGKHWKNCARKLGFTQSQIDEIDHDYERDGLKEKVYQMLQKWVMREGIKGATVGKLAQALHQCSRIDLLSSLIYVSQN
Protocol: RIPK1 kinase activity was assayed using the ADP-Glo assay and RIPK1 kinase reaction system (Promega, catalog number: VA7593). The RIPK1 kinase activity assay was performed according to the Promega kit manual.
The experimental method was briefly described as below. The concentration of RIPK1 kinase in the RIPK1 kinase reaction system was determined by kinase titration and S/B10. The compound was diluted with 1× kinase buffer D (1% DMSO), 1 μL of 1 mM compound DMSO stock solution was added to 19 μL 1× kinase buffer D, and the compound was serially diluted with 1× kinase buffer D at a ratio of 1:5, for a total of 8 concentration points, and a control with the same DMSO volume was set. RIPK1 kinase was diluted with 1× kinase buffer D. 2.5×ATP/substrate was diluted with 1× kinase buffer D. The final concentration of ATP in the kinase reaction system was 10 μM. The final concentration of MBP substrate was 100 μg/mL. 1 μL of diluted compound and 2 μL of diluted RIPK1 kinase were mixed, incubated at room temperature for 15 minutes, 2 μL of 2.5×ATP/substrate was added, mixed, and incubated at room temperature for 1 hour. 5 μL ADP-Glo reagent was added to each well and incubated at room temperature for 1 hour. 10 μL ADP detection reagent was added to each well and incubated at room temperature for another 0.5-1 hour. The chemiluminescent signal was read with a microplate reader and the kinase activity inhibition rate was calculated. IC50 was obtained by fitting the nonlinear regression curve log [inhibitor] vs. response-variable slope (four parameters) in GraphPad Prism.

[3] = tested on: U937 cells; assay: EC50 of necroptosis inhibition in U937 cells (TSZ-induced, CellTiter-Glo); assay type: cell-based; conditions: Homo sapiens, U-937; TSZ (hTNF-α, SM-164, Z-VAD-FMK) 20 hours; 10 concentration points; read-out: EC50 intervals of necroptosis inhibition in U937 cells
Procedure, shortened: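 Luminescent ATP readout (CellTiter-Glo) after 20 h gave viability of TSZ-challenged U937 cells; compounds were added 15 min ahead of TNF-α/SM-164/Z-VAD-FMK. EC50 derived by variable-slope nonlinear regression of inhibition relative to no-TSZ and TSZ-alone controls.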

[4] = target: T1, RIPK1 kinase; assay: In vitro RIPK1 kinase activity assay (ADP-Glo), inhibition by compounds at 1 μM; assay type: biochemical; conditions: compound 1 μM; ATP 10 μM; MBP substrate 100 μg/mL; read-out: RIPK1 kinase activity inhibition rate range
Procedure, shortened: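 Read by ADP-Glo chemiluminescence as percent inhibition: RIPK1 kinase, 15-min room-temperature compound preincubation, then 1-h reaction with MBP (100 μg/mL final) and ATP (10 μM final). Enzyme level was set by titration.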

| Compound | Inhibition rate range of compounds (1 μM) on U937 cell necroptosis [1] | IC50 [2] | EC50 [3] | inhibition at 1 µM [4] |
| --- | --- | --- | --- | --- |
| C[C@@H](NC(=O)C(=O)N[C@H]1COc2ccc(C#CCCO)cc2N(C)C1=O)c1ccccc1 [Example 125, N^1-((S)-7-(4-hydroxybut-1-yn-1-yl)-5-methyl-4-oxo-2,3,4,5-tetrahydrobenzo[b][1,4]oxazepin-3-yl)-N^2-((R)-1-phenylethyl)oxalamide] | A (A: ≥90%) | < 100 nM | < 100 nM | – |
| Cc1ncsc1-c1ccc(CNC(=O)[C@@H]2C[C@@H](O)CN2C(=O)[C@@H](NC(=O)CCOCCOCCOCCN2CCN(CC#Cc3ccc4c(c3)N(C)C(=O)[C@@H](NC(=O)C(=O)N[C@H](C)c3ccccc3)CO4)CC2)C(C)(C)C)cc1 [Example 163, N^1-((S)-7-(3-(4-((S)-14-((2S,4R)-4-hydroxy-2-((4-(4-methylthiazol-5-yl)benzyl)carbamoyl)pyrrolidine-1-carbonyl)-15,15-dimethyl-12-oxo-3,6,9-trioxa-13-azahexadecyl)piperazin-1-yl)prop-1-yn-1-yl)-5-methyl-4-oxo-2,3,4,5-tetrahydrobenzo[b][1,4]oxazepin-3-yl)-N^2-((R)-1-phenylethyl)oxalamide] | A (A: ≥90%) | – | < 100 nM | ≥ 75% |
| C[C@@H](NC(=O)C(=O)N[C@H]1CN(C)c2ccc(C#CCN3CCOCC3)cc2N(C)C1=O)c1ccccc1 [Example 166, N^1-((S)-1,5-dimethyl-8-(3-morpholinoprop-1-yn-1-yl)-2-oxo-2,3,4,5-tetrahydro-1H-benzo[b][1,4]diazepin-3-yl)-N^2-((R)-1-phenylethyl)oxalamide] | A (A: ≥90%) | – | < 100 nM | 25 to 49% |
